What was measured:
mTOR kinase domain = mTOR kinase domain (Homo sapiens, UniProt P42345); assay: in vitro mTOR kinase assay (γ-32P-ATP, purified kinase domain); format: biochemical; conditions: 10 μM ATP
Description: Purified mTOR kinase domain was incubated with inhibitors at 2- or 4-fold dilutions over a concentration range of 50-0.001 μM or with vehicle (0.1% DMSO) in the presence of 10 μM ATP, 2.5 μCi of γ-32P-ATP and substrate. Reactions were terminated by spotting onto nitrocellulose or phosphocellulose membranes, depending on the substrate; this membrane was then washed 5-6 times to remove unbound radioactivity and dried. Transferred radioactivity was quantified by phosphorimaging and IC50 values were calculated by fitting the data to a sigmoidal dose-response using Prism software.

PKD(V/V) mice [1] = assay: kidney histology (H&E sections) in PKD(V/V) mice treated P5-P11; format: in vivo; conditions: P5-P11 dosing
Description: (§1) To examine Compound A effects on kidney size in V/V mice, V/V mice were treated from P5-P11 with either vehicle or Compound A. Compound A dosing was 0.25 mg/kg on P5/P6, then 0.25 mg/kg bid on P7/P8, then 0.5 mg/kg bid on P9-11. Animals were sacrificed 2 hours after […] dose; kidneys were weighed, and one kidney was subjected to western blot and one to sectioning for histology.
Sagittal sections of the left kidney from mice treated with vehicle or Compound A were fixed, embedded in paraffin, and sectioned for histological analysis as described in Piontek K B, et. al, (2004) J Am Soc Nephrol 15:3035-33043. Sections were stained with H&E at observed with a microscope at 4×, […], 20×, and 40× magnification. (FIGS. 6-9) Cyst volume was lower and parenchyma was increased in Compound A-treated mice, quantitated using ImageJ software. The number of glomeruli was increased in the Compound A treated section as compared to the vehicle treated section. […] (FIG. 9)

cellular proliferation = assay: inhibition of cellular proliferation; format: cell-based
PKD(V/V) mice [2] = assay: body and kidney mass in PKD(V/V) mice treated P5-P11; format: in vivo
Description: (§2) In order to study mechanisms of selective intervention for treating PKD, PKD(V/V) (“V/V”) mice were used. V/V mice are an animal model of PKD which are homozygous for a mutation in PKD 1 (the gene implicated in 85% of PKD). (Yu S, et al. Proc. Natl. Acad. Sci. U.S.A. 2007; 104: 18688-18693.) These mice develop severe PKD rapidly during the postnatal period. P11 V/V mice were treated with Compound A (0.5 mg/kg; “+”) or vehicle (“−”) p.o. Animals were sacrificed 2 hours later and kidney crude lysates were prepared and subjected to Western blot analysis.
as §1

mTOR1/2 signaling = assay: Western blot of kidney crude lysates of treated PKD(V/V) mice; format: in vivo; conditions: 0.5 mg/kg p.o., kidney lysates 2 hours later
Description: as §2
Whole kidneys were isolated from mice and immediately flash frozen. Tissues were ground using a mortar and pestle under a blanket of liquid nitrogen followed by homogenization in lysis buffer. Supernatants were loaded in gels and proteins were separated via electrophoresis. Primary antibodies were used to assess the following proteins: p-Akt (S473), p-Akt (T308), total-Akt, p-4E-BP1, total-4E-BP1, p-S6 ribosomal protein, and total-S6 ribosomal protein.

PI3K (α, β, γ, and δ) = assay: selectivity of kinase inhibition, mTOR versus PI3K; format: biochemical; conditions: selectivity mTOR over PI3K α
[3] = left kidney sagittal sections, ImageJ

Chain of mTOR kinase domain (P42345 2156-2469 limits assumed, species assumed): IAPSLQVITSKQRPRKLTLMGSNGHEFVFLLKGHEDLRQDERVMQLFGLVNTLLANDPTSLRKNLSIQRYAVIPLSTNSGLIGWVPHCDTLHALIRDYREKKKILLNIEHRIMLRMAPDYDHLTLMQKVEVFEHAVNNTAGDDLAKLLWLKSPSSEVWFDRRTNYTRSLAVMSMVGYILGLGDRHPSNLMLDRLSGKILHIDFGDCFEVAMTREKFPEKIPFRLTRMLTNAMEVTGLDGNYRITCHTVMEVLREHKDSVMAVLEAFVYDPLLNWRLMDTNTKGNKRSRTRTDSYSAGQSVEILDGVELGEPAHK

SMILES | IC50 (mTOR kinase domain) [µM] | number of glomeruli, compared to the vehicle treated section (PKD(V/V) mice [1]; 20× magnification) | appearance of the glomeruli, compared to the untreated kidney (PKD(V/V) mice [1]; 40× magnification) | Cyst volume (PKD(V/V) mice [1]; [3]) | parenchyma (PKD(V/V) mice [1]; [3]) | IC50 (cellular proliferation) [µM] | kidney mass in Het/WT (PKD(V/V) mice [2]; Het/WT mice, P5-P11 dosing, p=0.22) | normalized kidney mass in Het/WT mice (PKD(V/V) mice [2]; Het/WT mice, P5-P11 dosing, p=0.5) | Body mass in mutant and in Het/WT mice (PKD(V/V) mice [2]; P5-P11, 0.25 mg/kg P5/P6, 0.25 mg/kg bid P7/P8, 0.5 mg/kg bid P9-11, p<0.05) | Average kidney mass, compared to vehicle treated mutants (PKD(V/V) mice [2]; V/V mutants, P5-P11 dosing, p=0.007) | Normalized kidney mass (combined kidney weight/body weight), compared with vehicle-treated mutants (PKD(V/V) mice [2]; V/V mutants, P5-P11 dosing, p=0.01) | Baseline phosphorylation of S6 in wt and mutant mice (mTOR1/2 signaling) | S6-RP expression (mTOR1/2 signaling) | Akt S473 and T308 phosphorylation (mTOR1/2 signaling; P11 V/V mice) | Total Akt (mTOR1/2 signaling; P11 V/V mice) | p4E-BP1 in mutant mice (mTOR1/2 signaling; P11 V/V mice) | pS6-RP in mutant mice (mTOR1/2 signaling; P11 V/V mice) | Baseline phosphorylation and expression of 4E-BP1 in wt mice (mTOR1/2 signaling; wt mice) | more effective in inhibiting mTOR activity than that of PI3K (α, β, γ, and δ) (PI3K (α, β, γ, and δ))
CC(CO)n1nc(-c2ccc3oc(N)nc3c2)c2c(N)ncnc21 (stereo not drawn) [Compound B] | < 0.1 |  |  |  |  |  |  |  |  |  |  |  |  |  |  |  |  |  | 
CC(C)(CO)n1nc(-c2ccc3oc(N)nc3c2)c2c(N)ncnc21 [Compound A] | < 0.1 | increased | appeared normal | lower | increased | 0.01 to 0.1 | not significantly changed | no significant effect | decreased | significantly lower | significantly lower | markedly attenuated | relatively unaffected | moderately attenuated | unaffected | markedly inhibited | markedly inhibited | markedly attenuated | over 1000 ×
CC(=O)Nc1nc2cc(-c3nn(C(C)C)c4ncnc(N)c34)ccc2o1 [Compound D] | < 0.1 |  |  |  |  |  |  |  |  |  |  |  |  |  |  |  |  |  | 
